Data: the CheMixHub ionic liquid set

Assay: xn = mol fraction of the nth substance listed

CCCCCCCCCCCCCCCC[n+]1ccccc1.[Cl-] + NCC(=O)O + O
308.15 K, 101 kPa
Conditions | electrical conductivity [S/m]
x2 = 0, x1 = 5.4e-07 | 0.000222
x2 = 0, x1 = 9e-07 | 0.00029
x2 = 0, x1 = 1.62e-06 | 0.0004
x2 = 0, x1 = 2.34e-06 | 0.000465
x2 = 0, x1 = 2.88e-06 | 0.000581
x2 = 0, x1 = 3.78e-06 | 0.000705
x2 = 0, x1 = 4.5e-06 | 0.000794
x2 = 0, x1 = 5.59e-06 | 0.000937
x2 = 0, x1 = 6.85e-06 | 0.00106
x2 = 0, x1 = 7.93e-06 | 0.001222
x2 = 0, x1 = 9.01e-06 | 0.001438
x2 = 0, x1 = 1.009e-05 | 0.00159
x2 = 0, x1 = 1.117e-05 | 0.001701
x2 = 0, x1 = 1.442e-05 | 0.00209
x2 = 0, x1 = 1.55e-05 | 0.00219
x2 = 0, x1 = 1.766e-05 | 0.00237
x2 = 0, x1 = 1.982e-05 | 0.00248
x2 = 0, x1 = 2.18e-05 | 0.00259
x2 = 0, x1 = 2.397e-05 | 0.00264
x2 = 0, x1 = 2.595e-05 | 0.00278
x2 = 0, x1 = 2.991e-05 | 0.00297
x2 = 0, x1 = 3.406e-05 | 0.00314
x2 = 0, x1 = 3.784e-05 | 0.00328
x2 = 0, x1 = 4.162e-05 | 0.00342
x2 = 0, x1 = 4.541e-05 | 0.00356
x2 = 0, x1 = 4.919e-05 | 0.00369
x2 = 0, x1 = 5.099e-05 | 0.00375
x2 = 0, x1 = 5.982e-05 | 0.00403
x2 = 0, x1 = 6.829e-05 | 0.00432
x2 = 0, x1 = 7.64e-05 | 0.00454
x2 = 0, x1 = 8.415e-05 | 0.00477
x2 = 0, x1 = 9.171e-05 | 0.00497
x2 = 0, x1 = 9.892e-05 | 0.00516
x2 = 0, x1 = 0.0001058 | 0.00533
x2 = 0, x1 = 0.0001124 | 0.0055
x2 = 0, x1 = 0.0001189 | 0.00565
x2 = 2.018e-05, x1 = 5.4e-07 | 0.0001
x2 = 2.018e-05, x1 = 9e-07 | 0.000245
x2 = 2.018e-05, x1 = 1.62e-06 | 0.000348
x2 = 2.018e-05, x1 = 2.34e-06 | 0.000456
x2 = 2.018e-05, x1 = 2.88e-06 | 0.000621
x2 = 2.018e-05, x1 = 3.78e-06 | 0.000716
x2 = 2.018e-05, x1 = 4.51e-06 | 0.000822
x2 = 2.018e-05, x1 = 5.59e-06 | 0.000964
x2 = 2.018e-05, x1 = 6.85e-06 | 0.00108
x2 = 2.018e-05, x1 = 7.93e-06 | 0.001203
x2 = 2.018e-05, x1 = 9.01e-06 | 0.001314
x2 = 2.018e-05, x1 = 1.009e-05 | 0.001427
x2 = 2.018e-05, x1 = 1.117e-05 | 0.001546
x2 = 2.018e-05, x1 = 1.334e-05 | 0.001813
x2 = 2.018e-05, x1 = 1.55e-05 | 0.00205
x2 = 2.018e-05, x1 = 1.766e-05 | 0.00226
x2 = 2.018e-05, x1 = 1.982e-05 | 0.0024
x2 = 2.018e-05, x1 = 2.181e-05 | 0.00252
x2 = 2.018e-05, x1 = 2.397e-05 | 0.00262
x2 = 2.018e-05, x1 = 2.595e-05 | 0.0027
x2 = 2.018e-05, x1 = 3.009e-05 | 0.00285
x2 = 2.018e-05, x1 = 3.406e-05 | 0.00306
x2 = 2.018e-05, x1 = 3.802e-05 | 0.00323
x2 = 2.018e-05, x1 = 4.181e-05 | 0.00336
x2 = 2.018e-05, x1 = 4.559e-05 | 0.0035
x2 = 2.018e-05, x1 = 4.92e-05 | 0.00362
x2 = 2.018e-05, x1 = 5.1e-05 | 0.00368
x2 = 2.018e-05, x1 = 6.001e-05 | 0.00392
x2 = 2.018e-05, x1 = 6.848e-05 | 0.00422
x2 = 2.018e-05, x1 = 7.658e-05 | 0.00445
x2 = 2.018e-05, x1 = 8.433e-05 | 0.00467
x2 = 2.018e-05, x1 = 9.19e-05 | 0.00486
x2 = 2.018e-05, x1 = 9.911e-05 | 0.00506
x2 = 2.018e-05, x1 = 0.000106 | 0.00523
x2 = 2.018e-05, x1 = 0.0001126 | 0.00538
x2 = 2.018e-05, x1 = 0.0001191 | 0.00553
x2 = 0.0002, x1 = 5.4e-07 | 0.000232
x2 = 0.0002, x1 = 9e-07 | 0.000298
x2 = 0.0002, x1 = 1.62e-06 | 0.00042
x2 = 0.0002, x1 = 2.16e-06 | 0.000524
x2 = 0.0002, x1 = 2.89e-06 | 0.000628
x2 = 0.0002, x1 = 3.79e-06 | 0.000685
x2 = 0.0002, x1 = 4.51e-06 | 0.000861
x2 = 0.0002, x1 = 5.59e-06 | 0.001036
x2 = 0.0002, x1 = 6.67e-06 | 0.00115
x2 = 0.0002, x1 = 7.75e-06 | 0.00127
x2 = 0.0002, x1 = 8.84e-06 | 0.001426
x2 = 0.0002, x1 = 9.92e-06 | 0.00157
x2 = 0.0002, x1 = 1.1e-05 | 0.00168
x2 = 0.0002, x1 = 1.316e-05 | 0.001913
x2 = 0.0002, x1 = 1.533e-05 | 0.00214
x2 = 0.0002, x1 = 1.731e-05 | 0.00228
x2 = 0.0002, x1 = 1.947e-05 | 0.00243
x2 = 0.0002, x1 = 2.146e-05 | 0.00253
x2 = 0.0002, x1 = 2.344e-05 | 0.00262
x2 = 0.0002, x1 = 2.56e-05 | 0.00272
x2 = 0.0002, x1 = 2.957e-05 | 0.00291
x2 = 0.0002, x1 = 3.336e-05 | 0.00307
x2 = 0.0002, x1 = 3.732e-05 | 0.00323
x2 = 0.0002, x1 = 4.111e-05 | 0.00337
x2 = 0.0002, x1 = 4.472e-05 | 0.0035
x2 = 0.0002, x1 = 4.832e-05 | 0.00363
x2 = 0.0002, x1 = 5.012e-05 | 0.0037
x2 = 0.0002, x1 = 5.878e-05 | 0.00399

O=C1O[C@H]([C@@H](O)CO)C(O)=C1O + CC[n+]1ccn(C)c1.O=S(=O)([O-])O + O
viscosity [mPa·s], 100 kPa
Conditions | x1 = 0.0002709, x2 = 0 | x1 = 0.0005412, x2 = 0 | x1 = 0.0008101, x2 = 0 | x1 = 0.001079, x2 = 0 | x1 = 0.001351, x2 = 0 | x1 = 0.001618, x2 = 0 | x1 = 0.00189, x2 = 0
293.15 K | 1.01 | 1.01 | 1.02 | 1.02 | 1.03 | 1.03 | 1.04
298.15 K | 0.9 | 0.9 | 0.91 | 0.91 | 0.92 | 0.92 | 0.93
303.15 K | 0.8 | 0.81 | 0.81 | 0.82 | 0.82 | 0.83 | 0.84
308.15 K | 0.72 | 0.73 | 0.73 | 0.74 | 0.74 | 0.75 | 0.76
313.15 K | 0.66 | 0.66 | 0.67 | 0.67 | 0.68 | 0.68 | 0.69
318.15 K | 0.61 | 0.61 | 0.62 | 0.62 | 0.63 | 0.63 | 0.64

CCC(=O)[O-].CC[NH+]1CCNCC1 + CCCCO
Conditions | viscosity [mPa·s]
313.15 K, 101 kPa, x2 = 0.6004 | 14.05
